The text below walks through data of patent US20250186391A1, “ORAL COMPLEMENT FACTOR D INHIBITORS” (BioCryst Pharmaceuticals, Inc., priority 2019, published 2025).

Some results are limits rather than exact numbers.

A word on the IC50: it is the point on the concentration scale where inhibition reaches its midpoint.

In this assay the target is Factor D (Homo sapiens (Human), UniProt P00746). The assay can be described thus: Factor D esterolytic assay. In kind it is biochemical. The following applies: Z-Lys-SBzl substrate, 100 mM HEPES, 500 mM NaCl, pH 7.5, 10% DMSO; tested a minimum of three times; read-out: Measured Ki (IC50) Value for Compounds: IC50. In short, it runs like this: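 Buffer was 100 mM HEPES, 500 mM NaCl, pH 7.5 with 10% DMSO. Compound and Factor D were combined, then Z-Lys-SBzl (1.29 mM) was added either at once or following room-temperature incubation. Rates came from DTNB colour at 405 nm minus 690 nm over 600 s, with percent inhibition giving IC50 over at least three tests.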
Factor D, sequence (P00746 26-253): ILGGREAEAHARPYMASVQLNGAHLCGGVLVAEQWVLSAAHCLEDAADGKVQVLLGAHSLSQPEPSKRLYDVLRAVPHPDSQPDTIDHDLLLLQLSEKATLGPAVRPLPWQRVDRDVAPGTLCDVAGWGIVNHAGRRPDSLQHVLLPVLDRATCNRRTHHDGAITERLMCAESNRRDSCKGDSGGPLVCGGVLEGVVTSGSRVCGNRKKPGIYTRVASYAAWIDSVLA
As for `NCc1cccc(-c2coc3c(COc4ccccc4CC(=O)O)cccc23)c1` [Compound 96e, 2-(2-((3-(3-(aminomethyl)phenyl)benzofuran-7-yl)methoxy)phenyl)acetic acid], the half-inhibitory concentration (IC50) was more than 10000 nM. For the compound `NCc1cccc(-c2ccc3c(c2)c(COc2ccccc2CC(=O)O)nn3-c2cccnc2)c1` [Compound 264c, 2-(2-((5-(3-(aminomethyl)phenyl)-1-(pyridin-3-yl)-1H-indazol-3-yl)methoxy)phenyl)acetic acid], the IC50 was less than 1000 nM. Consider `NCc1cccc(-c2cc(-c3cccnc3)c3occ(COc4ccccc4CC(=O)O)c3c2)c1` [Compound 162c, 2-(2-((5-(3-(aminomethyl)phenyl)-7-(pyridin-3-yl)benzofuran-3-yl)methoxy)phenyl)acetic acid], for which the IC50 was less than 1000 nM. Next, `NCc1cccc(-c2cc(NCc3cccnc3)c3occ(COc4ccccc4CC(=O)O)c3c2)c1` [Compound 187d, 2-(2-((5-(3-(aminomethyl)phenyl)-7-((pyridin-3-ylmethyl)amino)benzofuran-3-yl)methoxy)phenyl)acetic acid]: less than 1000 nM.

Take `NCc1cc(-c2ccc3occ(COc4ccccc4CC(=O)O)c3c2)ccn1` [Compound 53b, 2-(2-((5-(2-(aminomethyl)pyridin-4-yl)benzofuran-3-yl)methoxy)phenyl)acetic acid]: the half-inhibitory concentration (IC50) was less than 1000 nM. On to `Cc1cc2occ(COc3ccccc3CC(=O)O)c2cc1-c1cccc(CN)c1` [Compound 70f, 2-(2-((5-(3-(aminomethyl)phenyl)-6-methylbenzofuran-3-yl)methoxy)phenyl)acetic acid], for which the concentration for half-maximal inhibition (IC50) is 1000 to 10000 nM. Consider `Cc1ccc(CC(=O)O)c(OCc2c(C(C)(C)C)oc3ccc(-c4cccc(CN)c4)cc23)c1` [Compound 176c, 2-(2-((5-(3-(aminomethyl)phenyl)-2-(tert-butyl)benzofuran-3-yl)methoxy)-4-methylphenyl)acetic acid], for which the concentration for half-maximal inhibition (IC50) was less than 1000 nM. As for `CNc1cc(-c2cccc(CN)c2)cc2c(COc3ccccc3CC(=O)O)coc12` [Compound 152d, 2-(2-((5-(3-(aminomethyl)phenyl)-7-(methylamino)benzofuran-3-yl)methoxy)phenyl)acetic acid], the half-maximal inhibitory concentration (IC50) was less than 1000 nM. Next, `COc1ccc(CC(=O)O)c(OCc2c(C)oc3ccc(-c4ccnc(CN)c4)cc23)c1` [Compound 203d, 2-(2-((5-(2-(aminomethyl)pyridin-4-yl)-2-methylbenzofuran-3-yl)methoxy)-4-methoxyphenyl)acetic acid]: less than 1000 nM; `C[C@@H](N)c1cccc(-c2ccc3occ(COc4ccccc4CC(=O)O)c3c2)c1` [Compound 52c, (R)-2-(2-((5-(3-(1-aminoethyl)phenyl)benzofuran-3-yl)methoxy)phenyl)acetic acid]: less than 1000 nM; `CC(C)n1nc2ccc(-c3cccc(CN)c3)cc2c1COc1ccccc1CC(=O)O` [Compound 183e, 2-(2-((5-(3-(aminomethyl)phenyl)-2-isopropyl-2H-indazol-3-yl)methoxy)phenyl)acetic acid]: less than 1000 nM. `CC(Oc1ccccc1CC(=O)O)c1coc2ccc(-c3cccc(CN)c3)cc12` (stereo not shown) [Compound 119d, 2-(2-(1-(5-(3-(aminomethyl)phenyl)benzofuran-3-yl)ethoxy)phenyl)acetic acid]: the IC50 is less than 1000 nM.

Turning to `CN(Cc1cc(-c2cccc(CN)c2)cc2c(COc3ccccc3CC(=O)O)coc12)CC1CC1` [Compound 263e, 2-(2-((5-(3-(aminomethyl)phenyl)-7-(((cyclopropylmethyl)(methyl)amino)methyl)benzofuran-3-yl)methoxy)phenyl)acetic acid], the 50% inhibitory concentration (IC50) was less than 1000 nM. Next, `NCc1cccc(-c2ccc3occ(COc4ccccc4CCC(=O)O)c3c2)c1` [Compound 2d, 3-(2-((5-(3-(aminomethyl)phenyl)benzofuran-3-yl)methoxy)phenyl)propanoic acid]: 1000 to 10000 nM; `NCc1cccc(-c2ccc3occ(Cc4cccc(CC(=O)O)c4O)c3c2)c1F` [Compound 42c, 2-(3-((5-(3-(aminomethyl)-2-fluorophenyl)benzofuran-3-yl)methyl)-2-hydroxyphenyl)acetic acid]: less than 1000 nM. The result for `NCc1cccc(-c2cc(-c3cccc(CN)c3)c3oc(COc4ccccc4CC(=O)O)cc3c2)c1` [Compound 8e, 2-(2-((5,7-bis(3-(aminomethyl)phenyl)benzofuran-2-yl)methoxy)phenyl)acetic acid] reads less than 1000 nM. Next, `COc1ccc(CC(=O)O)c(OCc2c(C)oc3ccc(-c4ccnc(CN)c4F)cc23)c1` [Compound 281d, 2-(2-((5-(2-(aminomethyl)-3-fluoropyridin-4-yl)-2-methylbenzofuran-3-yl)methoxy)-4-methoxyphenyl)acetic acid]: less than 1000 nM; `NCc1cccc(-c2ccc3occ(COc4cc(N)ccc4CC(=O)O)c3c2)c1` [Compound 84b, 2-(4-amino-2-((5-(3-(aminomethyl)phenyl)benzofuran-3-yl)methoxy)phenyl)acetic acid]: less than 1000 nM.

As for `CC(C)n1nc(COc2ccccc2CC(=O)O)c2cc(-c3ccc(O)c(CN)c3)ccc21` [Compound 317d, 2-(2-((5-(3-(aminomethyl)-4-hydroxyphenyl)-1-isopropyl-1H-indazol-3-yl)methoxy)phenyl)acetic acid], the IC50 was 1000 to 10000 nM. In the case of `NCc1nccc(-c2cc(COc3ccccc3CC(=O)O)cc3cc(COc4ccccc4CC(=O)O)oc23)c1F` [Compound 28d, 2,2′-((((7-(2-(aminomethyl)-3-fluoropyridin-4-yl)benzofuran-2,5-diyl)bis(methylene))bis(oxy))bis(2,1-phenylene))diacetic acid], the IC50 is less than 1000 nM.

With `NCc1cccc(-c2cc(COc3ccccc3CC(=O)O)cc3cc(CCOc4ccccc4CC(=O)O)oc23)c1` [Compound 20j, 2-(2-((7-(3-(aminomethyl)phenyl)-2-(2-(2-(carboxymethyl)phenoxy)ethyl)benzofuran-5-yl)methoxy)phenyl)acetic acid], the concentration for half-maximal inhibition (IC50) is less than 1000 nM. The result for `NCc1cccc(-c2cc(NC3CCCC3)c3occ(COc4ccccc4CC(=O)O)c3c2)c1` [Compound 188d, 2-(2-((5-(3-(aminomethyl)phenyl)-7-(cyclopentylamino)benzofuran-3-yl)methoxy)phenyl)acetic acid] reads less than 1000 nM.

As for `COc1ccc(CC(=O)O)c(OCc2coc3c(NCC4CC4)cc(-c4cccc(CN)c4)cc23)c1` [Compound 276e, 2-(2-((5-(3-(aminomethyl)phenyl)-7-((cyclopropylmethyl)amino)benzofuran-3-yl)methoxy)-4-methoxyphenyl)acetic acid], the IC50 is less than 1000 nM. On to `CC(C)n1nc(COc2ccccc2CC(=O)O)c2cc(-c3cccc([C@H](N)CO)c3)ccc21` [Compound 267b, (S)-2-(2-((5-(3-(1-amino-2-hydroxyethyl)phenyl)-1-isopropyl-1H-indazol-3-yl)methoxy)phenyl)acetic acid], for which the 50% inhibitory concentration (IC50) was less than 1000 nM.

Consider `NCc1cccc(-c2ccc3occ(Cc4ccccc4CC(=O)O)c3c2)c1` [Compound 73f, 2-(2-((5-(3-(aminomethyl)phenyl)benzofuran-3-yl)methyl)phenyl)acetic acid], for which the IC50 was in the range of 1000 to 10000 nM. Consider `Cc1cc(-c2cc(-c3cccc(CN)c3)cc3c(COc4ccccc4CC(=O)O)coc23)cn(C)c1=O` [Compound 224c, 2-(2-((5-(3-(aminomethyl)phenyl)-7-(1,5-dimethyl-6-oxo-1,6-dihydropyridin-3-yl)benzofuran-3-yl)methoxy)phenyl)acetic acid], for which the IC50 is less than 1000 nM. For the compound `CC(C)n1nc(COc2ccccc2CC(=O)O)c2cc(-c3ccnc(CN)c3)ccc21` [Compound 266b, 2-(2-((5-(2-(aminomethyl)pyridin-4-yl)-1-isopropyl-1H-indazol-3-yl)methoxy)phenyl)acetic acid], the half-inhibitory concentration (IC50) is less than 1000 nM.

For `NCc1cccc(-c2cccc3cc(COc4ccccc4CC(=O)O)ccc23)c1` [Compound 41d, 2-(2-((5-(3-(aminomethyl)phenyl)naphthalen-2-yl)methoxy)phenyl)acetic acid], the IC50 is more than 10000 nM. In the case of `CC(C)(C)OC(=O)Nc1ccc(CC(=O)O)c(OCc2coc3ccc(-c4cccc(CN)c4)cc23)c1` [Compound 83h, 2-(2-((5-(3-(aminomethyl)phenyl)benzofuran-3-yl)methoxy)-4-((tert-butoxycarbonyl)amino)phenyl)acetic acid], the IC50 was less than 1000 nM.

As to `NCc1cccc(-c2cc(OCCN3CCOCC3)c3occ(COc4ccccc4CC(=O)O)c3c2)c1` [Compound 250f, 2-(2-((5-(3-(aminomethyl)phenyl)-7-(2-morpholinoethoxy)benzofuran-3-yl)methoxy)phenyl)acetic acid], the IC50 was less than 1000 nM. Next, `Cc1cccc(C)c1-c1cc(-c2cccc(CN)c2)cc2c(COc3ccccc3CC(=O)O)coc12` [Compound 220c, 2-(2-((5-(3-(aminomethyl)phenyl)-7-(2,6-dimethylphenyl)benzofuran-3-yl)methoxy)phenyl)acetic acid]: less than 1000 nM; `NCc1cccc(-c2cc(CN3CCC(F)(F)CC3)c3occ(COc4ccccc4CC(=O)O)c3c2)c1` [Compound 89e, 2-(2-((5-(3-(aminomethyl)phenyl)-7-((4,4-difluoropiperidin-1-yl)methyl)benzofuran-3-yl)methoxy)phenyl)acetic acid]: less than 1000 nM.

Take `NCc1cccc(-c2cc(CCC3CC3)c3occ(COc4ccccc4CC(=O)O)c3c2)c1` [Compound 170b, 2-(2-((5-(3-(aminomethyl)phenyl)-7-(2-cyclopropylethyl)benzofuran-3-yl)methoxy)phenyl)acetic acid]: the half-maximal inhibitory concentration (IC50) is less than 1000 nM.

As to `COc1ccc(CC(=O)O)c(OCc2c(C(C)=O)oc3ccc(-c4cccc(CN)c4)cc23)c1` [Compound 218c, 2-(2-((2-acetyl-5-(3-(aminomethyl)phenyl)benzofuran-3-yl)methoxy)-4-methoxyphenyl)acetic acid], the IC50 was less than 1000 nM.
